Results as given in the NIST ThermoML archive (doi:10.1016/j.jct.2011.12.005).
Numbers after ± are expanded uncertainties.

Legend:
[1] = for Normal melting temperature: Crystal, DTA
[2] = Molar enthalpy of transition or fusion
[3] = Crystal 2, Differential scanning calorimeter

| Normal melting temperature [1] [°C] | Molar enthalpy of transition or fusion ([2]; Crystal, DSC) [kcal/mol] | Triple point temperature [1, 3] [K] | Molar enthalpy of transition or fusion [2, 3] [kcal/mol] | SMILES |
| --- | --- | --- | --- | --- |
| 49 ± 0.4 | 4.16 ± 0.12 |  |  | Cc1ccc(C(C)C)c(O)c1 [3-methyl-6-isopropylphenol] |
| 207.6 ± 0.5 | 6.96 ± 0.191 |  |  | COc1cc(C(=O)O)ccc1O [4-hydroxy-3-methoxybenzoic acid] |
| 171.8 ± 0.9 | 7.62 ± 0.215 |  |  | COc1cc(C=CC(=O)O)ccc1O [4-hydroxy-3-methoxycinnamic acid] |
| 232.2 ± 0.5 | 4.28 ± 0.143 | 405.8 | 0.621 | Cn1c(=O)c2c(ncn2C)n(C)c1=O [caffeine] |
